According to patent US20260109721A1, “IONIZABLE CATIONIC LIPIDS INCORPORATING SILICON: SYNTHESIS AND LNP FORMULATION” (priority 2023, published 2026):

Assays:
[1] = LNP size, PDI and zeta potential by Dynamic Light Scattering (Method A); assay type: physicochemical; details: LNP formulated with the lipid, DLS
Experimental: (§1) The synthesized lipids were tested in term of in vitro transfection efficacy and toxicity on HeLa cells. In order to perform the mentioned biological tests, appropriate LNPs had to be formulated from the synthesized lipids. The formulation technique was different in Method A and B. The particle size, polydispersity index (PDI) and zeta potential of resulting LNPs were determined by means of Dynamic Light Scattering technique (DLS). Prior to biological testing the encapsulation efficiency (EE) of the loaded LNPs was determined by using RiboGreen RNA assay. In case of Method A Luc mRNA while in case of Method B GFP mRNA was transfected into the cells. In parallel with the transfection experiments, toxicity of the investigated LNPs was determined, in case of Method A resazurin assay while in case of Method B MTT assay was used. Additionally, the toxicity of the lipids was investigated on HepG2 cells and IC50 values were determined.
• 1. If needed, prepare stock solutions by solving known amounts of lipid powder into an appropriate solvent. The recommended solvent is ethanol and the recommended concentration is typically in the range 10-50 mM. Higher concentrations are preferred to allow flexibility on mRNA-LNP concentration. • 2. Remove the lipid stock solutions from the −20° C. freezer. For long-term storage, −80° C. is used. • 3. Check the vials for precipitation, DOPE (CAS #4004-05-1) (20 mM) and DSPE-PEG (CAS #474922-26-4) (5 mM) may need a 5-30 minute incubation step at 37° C. with intermittent vortexing to resuspend all contents. […] As a last resort, lipids may be heated to 50° C. to resuspend, time should be kept as short as possible to prevent oxidation or other modifying or degradative processes. • 4. Mix the lipids by vortexing for 2 minutes. • 5. […] Cooling the solution prevent excessive evaporation of ethanol or similar solvents upon opening. • 6. Meanwhile, thaw the RNA samples, including the latest SecNLuc control, by inserting the frozen tube in a room temperature aluminium block. • 7. Prepare for each LNP-formulation with identical mRNA component, an RNA master mix according to Table 1 below in a fresh tube. Use of a master mix allows more precise comparison of lipid formulations relative to each other. Split the master mix over a number of fresh tubes equal to the number of samples+controls. Each tube contains 375 μl of mRNA in 10 mM Citrate pH 4.0. • 8. Prepare for each LNP formulation with identical lipid composition a Lipid master mix according to Table 1 below in a fresh tube, exclude the lipid of interest. Use of a master mix allows more precise comparison of the novel ionizable lipid relative to each other. Split the master mix over a number of fresh tubes equal to the number of samples+controls. Each tube contains 65.5 μl of lipid master mix. • 9. Add the ionizable lipid of interest to the equally divide lipid master mix. Mix well by pipetting up and down. Label the tube according to the ionizable lipid used. • 10. Power on the L1 FM (L1 Formulation Machine uses 2 high-speed syringe pumps to mix lipids in organic solvents with mRNA in acidic aquous solution to generate well-defined LNPs. The microfluidic mixing chip involves a dean-type structure performing the high-efficiency mixing at a total flow rate (TFR) of around 12 ml/min at a 3:1 mixing ratio) and allow it to do a calibration of motor positions.
• 18. Fill a fresh syringe (C) through a blunt 18G stainless steel needle with the previously prepared RNA mixture of step 6. The volume should be approximately 85% of total formulation volume+25 μl (dead-volume). Make sure to remove all air bubbles by tapping. • 19. Fill a fresh syringe (D) through a blunt 18G stainless steel needle with the Lipid master mix. The volume should be approximately […] of total formulation volume+25 μl (dead-volume). Again, Make sure to remove all bubbles. • 20. Attach the syringes in the correct orientation, syringe A on the left and syringe B on the right • 21.

HeLa cells = test: Transfection efficiency with Luciferase (SecNLuc) mRNA, Nano-Glo assay (Method A); assay type: cell-based; details: Luc mRNA, 24 h, luminescence; for Transfection 10 ng mRNA: 10 ng mRNA/well; for Transfection 50 ng mRNA: 50 ng mRNA/well; for Transfection 100 ng mRNA: 100 ng mRNA/well
Experimental: as §1
• 1. Prepare mRNA solution by adding 100 ng mRNA (SecNLuc, #P009024, RiboPro) to 5 μl Opti-MEM • multiply by number of wells, include different concentrations and add 10% extra • a standard set-up we use is 100 ng-50 ng-10 ng mRNA/well in triplicate, which would need […] mRNA (includes 10% extra)
• 2. (If applicable) Prepare different concentrations in Opti-MEM (for instance 100/50/10 ng). • 3. Add 10 μl to each well and mix carefully by pipetting. • 4. Mix by swirling the plate horizontally at modest speed. Reverse in direction 3 times. • 5. Incubate for 24 hours (incubator).
This protocol is applied to measure luciferase activity for secreted NanoLuc and is based on the protocol by Promega (Nano-Glo® Luciferase Assay System #N1110-1150). The protocol is designed for a 384-wells plate, but volumes can be changed accordingly for other plates.
• 1. Plate cells (HeLa) in 96-well plate, grow until 80% confluent and transfect with SecNanoLuc mRNA and incubate for the desired period (24 h). • 2. After incubation, the translated protein is accumulated in the medium. Transfer medium to a new plate or tubes. • 3. Transfer 12 μl of each sample to a black-walled, clear-bottom 384-well plate • Black-walled plates are important to prevent shine-through of luminescence from other wells; alternatively, multiple wells between samples can be left empty. • 4. Set-up plate reader • 5. Prepare the desired amount of Nano-Glo® Luciferase Assay Reagent by combining one volume of Nano-Glo® Luciferase Assay Substrate with 50 volumes of Nano-Glo® Luciferase Assay Buffer: • a. composition: 100 mM MES pH 6; 1 mM EDTA; […]; 150 mM KCl; 1 mM DTT; 35 mM Thiourea; • b. briefly spin tubes containing substrate in a microcentrifuge before use. • 6. Add and mix (by pipetting) 12 μl Nano-Glo® Luciferase Assay Reagent per well • Wait approximately 3 minutes before measuring luminescence. […] Measure luminescence in plate reader using standard protocol luciferase (this includes mixing sample in plate reader)

| Structure (SMILES) | PDI [1] | Size (nm) [1] | Zeta potential (mV) [1] | Transfection 10 ng mRNA (HeLa cells) | Transfection 50 ng mRNA (HeLa cells) | Transfection 100 ng mRNA (HeLa cells) |
| --- | --- | --- | --- | --- | --- | --- |
| CCCCCCCCCCCCCCCCOC(CCCCCCCCCCCCCCC)O[Si](C)(C)OCCCCCCN(CCO)CCO (stereo not drawn) [Example 49, 3-(2-hydroxyethyl)-11,11-dimethyl-13-pentadecyl-10,12,14-trioxa-3-aza-11-silatriacontan-1-ol] | 0.396 | 171.9 nm | −12.77 mV | 1.35E+05 | 6.74E+05 | 1.20E+06 |
| CCCCCCCC/C=C\CCCCCCCC(OCC(CCCCCC)CCCCCCCC)O[Si](C)(C)OCCCCCCN(CCO)CCO (stereo not drawn) [Example 50, (Z)-13-(heptadec-8-en-1-yl)-16-hexyl-3-(2-hydroxyethyl)-11,11-dimethyl-10,12,14-trioxa-3-aza-11-silatetracosan-1-ol] | 0.022 | 153.8 nm | −10.38 mV | 5.85E+04 | 2.12E+06 | 8.19E+06 |
| CCCCCCCC/C=C\CCCCCCCCOC(CC[C@@H](C)C1CCC2C3CCC4C[C@H](OC)CC[C@]4(C)C3CC[C@@]21C)O[Si](C)(C)OCCCCCCN(CCO)CCO (stereo partly drawn) [Example 51, (Z)-3-(2-hydroxyethyl)-13-((3R)-3-((3R,10S,13R)-3-methoxy-10,13-dimethylhexadecahydro-1H-cyclopenta[a]phenanthren-17-yl)butyl)-11,11-dimethyl-10,12,14-trioxa-3-aza-11-siladotriacont-23-en-1-ol] | 0.060 | 135.6 nm | −8.124 mV | 1.05E+04 | 1.70E+05 | 7.44E+05 |
| CCCCC/C=C\C/C=C\CCCCCCCCOC(CC[C@@H](C)C1CCC2C3CCC4C[C@H](OC)CC[C@]4(C)C3CC[C@@]21C)O[Si](C)(C)OCCCCCCN(CCO)CCO (stereo partly drawn) [Example 52, (23Z,26Z)-3-(2-hydroxyethyl)-13-((3R)-3-((3R,10S,13R)-3-methoxy-10,13-dimethylhexadecahydro-1H-cyclopenta[a]phenanthren-17-yl)butyl)-11,11-dimethyl-10,12,14-trioxa-3-aza-11-siladotriaconta-23,26-dien-1-ol] | 0.005 | 137.6 nm | −9.231 mV | 1.02E+05 | 1.65E+06 | 9.16E+06 |
| CCCCC/C=C\C/C=C\CCCCCCCCOC(CCCCCCC/C=C\C/C=C\CCCCC)O[Si](C)(C)OCCCCCCN1CCOCC1 (stereo not drawn) [Example 55, 4-((20Z,23Z)-10-((8Z,11Z)-heptadeca-8,11-dien-1-yl)-8,8-dimethyl-7,9,11-trioxa-8-silanonacosa-20,23-dien-1-yl)morpholine] | 0.441 | 319.9 nm | −10.81 mV | 1.32E+06 | 7.68E+06 | 1.03E+07 |
| CCCCC/C=C\C/C=C\CCCCCCCCOC(CCCCCCC/C=C\C/C=C\CCCCC)O[Si](C)(C)OCCCCCCN(C)CCO (stereo not drawn) [Example 56, (23Z,26Z)-13-((8Z,11Z)-heptadeca-8,11-dien-1-yl)-3,11,11-trimethyl-10,12,14-trioxa-3-aza-11-siladotriaconta-23,26-dien-1-ol] | 0.057 | 149.5 nm | −10.08 mV | 3.00E+00 | 5.63E+01 | 6.90E+01 |
| CCCCC/C=C\C/C=C\CCCCCCCCOC(CCCCCCC/C=C\C/C=C\CCCCC)O[Si](C)(C)OCCCCCCN1CCCCC1 (stereo not drawn) [Example 57, 1-((20Z,23Z)-10-((8Z,11Z)-heptadeca-8,11-dien-1-yl)-8,8-dimethyl-7,9,11-trioxa-8-silanonacosa-20,23-dien-1-yl)piperidine] | 0.041 | 160.3 nm | −11.06 mV | 9.82E+04 | 1.48E+06 | 5.16E+06 |
| CCCCC/C=C\C/C=C\CCCCCCCCOC(CCCCCCC/C=C\C/C=C\CCCCC)O[Si](C)(C)OCCCCCCN1CCN(CCO)CC1 (stereo not drawn) [Example 58, 2-(4-((20Z,23Z)-10-((8Z,11Z)-heptadeca-8,11-dien-1-yl)-8,8-dimethyl-7,9,11-trioxa-8-silanonacosa-20,23-dien-1-yl)piperazin-1-yl)ethan-1-ol] | 0.011 | 160.6 nm | −11.86 mV | 3.85E+02 | 3.92E+03 | 7.51E+03 |
| CCCCC/C=C\C/C=C\CCCCCCCCOC(CCCCCCC/C=C\C/C=C\CCCCC)O[Si](C)(C)OCCCCCCN(C)CC(O)CO (stereo not drawn) [Example 59, (24Z,27Z)-14-((8Z,11Z)-heptadeca-8,11-dien-1-yl)-4,12,12-trimethyl-11,13,15-trioxa-4-aza-12-silatritriaconta-24,27-diene-1,2-diol] | 0.105 | 112.8 nm | −8.941 mV | 9.07E+03 | 2.41E+05 | 5.66E+05 |
| CCCCC/C=C\C/C=C\CCCCCCCCOC(CCCCCCC/C=C\C/C=C\CCCCC)O[Si](C)(C)OCCCCCCN(C)CCCCO (stereo not drawn) [Example 60, (25Z,28Z)-15-((8Z,11Z)-heptadeca-8,11-dien-1-yl)-5,13,13-trimethyl-12,14,16-trioxa-5-aza-13-silatetratriaconta-25,28-dien-1-ol] | 0.041 | 201.0 nm | −7.785 mV | 1.76E+05 | 1.12E+06 | 1.81E+06 |
